Assay results from PubChem BioAssay AID652002 (Sanford-Burnham Center for Chemical Genomics, 2013).
The source made the active and inactive calls. The rule behind the calls is not given here.

Experiments:
[1] = TRAIL sensitizers in caspase-8 expressing neuroblastoma cells, dose response, NB7 cells plus caspase-8, luminescence, panel (AID 652002); settings: NB7 neuroblastoma +caspase-8, no TRAIL, compound-alone cytotoxicity counter-screen, luminescence viability, NB7+Caspase-8
[2] = target: NB7+Caspase-8; experiment: as above; settings: NB7 neuroblastoma +caspase-8, TRAIL sensitization, luminescence viability, with TRAIL
[3] = target: Tumor necrosis factor receptor superfamily member 10B (Homo sapiens) (UniProt O14763); experiment: as above; settings: NB7 neuroblastoma +caspase-8, TRAIL sensitization, luminescence viability; NB7+Caspase-8; with TRAIL, mean of runs
Chain of Tumor necrosis factor receptor superfamily member 10B (Homo sapiens) (O14763 whole entry, looked up): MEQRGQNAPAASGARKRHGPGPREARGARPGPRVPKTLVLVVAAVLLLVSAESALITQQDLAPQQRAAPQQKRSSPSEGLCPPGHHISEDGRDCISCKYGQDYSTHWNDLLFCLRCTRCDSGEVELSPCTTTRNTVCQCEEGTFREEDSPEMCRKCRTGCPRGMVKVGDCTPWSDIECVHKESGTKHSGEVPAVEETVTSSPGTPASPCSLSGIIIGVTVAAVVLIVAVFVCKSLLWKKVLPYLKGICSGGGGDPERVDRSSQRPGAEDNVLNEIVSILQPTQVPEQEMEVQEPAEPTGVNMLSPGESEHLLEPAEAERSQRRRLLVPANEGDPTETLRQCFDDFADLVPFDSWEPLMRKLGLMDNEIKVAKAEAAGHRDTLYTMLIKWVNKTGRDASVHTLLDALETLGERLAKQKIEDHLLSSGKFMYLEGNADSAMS

[4] = run 1, single replicate panel EC50
[5] = run 2, single replicate panel EC50

| Structure (SMILES) | EC50 ([1]; mean of runs) | EC50 [1, 4] [µM] | EC50 [1, 5] [µM] | EC50 [2, 4] [µM] | EC50 [2, 5] [µM] | EC50 [3] |
| --- | --- | --- | --- | --- | --- | --- |
| Cc1ccc2c(c1)-c1nc3ccccc3cc1C2=NC1CCCCC1 | > 12.5 µM (inactive) | > 12.5 | > 12.5 | > 12.5 | 7.45 | inactive |
| O=C(Nc1cnc2ccccn2c1=O)c1ccc(Cl)cc1Cl | > 12.5 µM (inactive) | > 12.5 | > 12.5 | > 12.5 | > 12.5 | > 12.5 µM (inactive) |
| CCOc1ccc(-c2nnc(-c3ccccc3)o2)cc1 | > 12.5 µM (inactive) | > 12.5 | > 12.5 | > 12.5 | 10.7 | inactive |
| CSc1ccc(/C=C/c2ccc3cccc(O)c3n2)cc1 | inactive | 7.93 | > 12.5 | > 12.5 | 6.31 | inactive |
| CCOC(=O)[C@]12Cc3cc4ccccc4cc3[C@H]1N(Cc1ccccc1)C(=O)c1ccccc12 | > 12.5 µM (inactive) | > 12.5 | > 12.5 | > 12.5 | > 12.5 | > 12.5 µM (inactive) |
| CC(C)C[C@H](NC(=O)c1nc[nH]c1C(=O)N[C@@H](CC(C)C)C(=O)OCc1ccccc1)C(=O)OCc1ccccc1 | > 12.5 µM (inactive) | > 12.5 | > 12.5 | > 12.5 | > 12.5 | > 12.5 µM (inactive) |
| CC(=O)c1ccc(NC(=O)Nc2cccnc2)cc1 | inactive | 11.4 | 10.2 | > 12.5 | 9.72 | inactive |
| O=C(N/N=C/c1cccc(OC(=O)c2ccco2)c1)c1ccc(F)cc1 | inactive | 4.46 | 7.04 | 4.82 | 4.55 | inactive |
| CCOc1ccc(/C=C/C(=O)Nc2cccc(C(C)=O)c2)cc1 | > 12.5 µM (inactive) | > 12.5 | > 12.5 | > 12.5 | > 12.5 | > 12.5 µM (inactive) |
| COc1cc(SC#N)ccc1N=Cc1c(C)[nH]n(-c2ccc(Cl)cc2)c1=O | > 12.5 µM (inactive) | > 12.5 | > 12.5 | > 12.5 | > 12.5 | > 12.5 µM (inactive) |
| CN(C(=O)COC(=O)c1cnc(Cl)c(Cl)c1)C1CCCCC1 | > 12.5 µM (inactive) | > 12.5 | > 12.5 | > 12.5 | > 12.5 | > 12.5 µM (inactive) |
| c1ccc(Nc2nnc(-c3cccnc3)s2)cc1 | > 12.5 µM (inactive) | > 12.5 | > 12.5 | > 12.5 | 5.66 | inactive |
| Cc1nn(-c2ccccc2)c2nc(N)c(C#N)c(-c3ccc(F)cc3)c12 | inactive | > 12.5 | 11.5 | > 12.5 | > 12.5 | > 12.5 µM (inactive) |
| CCOC(=O)c1ccc(N/C=C/C(=O)c2ccco2)cc1 | > 12.5 µM (inactive) | > 12.5 | > 12.5 | > 12.5 | > 12.5 | > 12.5 µM (inactive) |
| CC(C)CCn1c(=O)c(C(=O)Nc2ccccc2S(N)(=O)=O)c(O)c2ccccc21 | > 12.5 µM (inactive) | > 12.5 | > 12.5 | > 12.5 | > 12.5 | > 12.5 µM (inactive) |
| CC(C)CCn1cnc2c([nH]c3cccc(Cl)c32)c1=O | > 12.5 µM (inactive) | > 12.5 | > 12.5 | > 12.5 | > 12.5 | > 12.5 µM (inactive) |
| CCC(C)c1ccc(O)c(NC(=S)NC(=O)c2cccs2)c1 (stereo not drawn) | inactive | 5.97 | 8.18 | > 12.5 | 7.09 | inactive |
| CCOc1ccc2nc(NC(=O)c3cccc(-c4cc5ccccc5oc4=O)c3)sc2c1 | > 12.5 µM (inactive) | > 12.5 | > 12.5 | > 12.5 | > 12.5 | > 12.5 µM (inactive) |
| COc1ccccc1C=NNC(=O)NN=Cc1ccccc1OC | inactive | 8.5 | 10.3 | > 12.5 | 7.21 | inactive |
| O=C(N/N=C/c1ccc2cccnc2c1)c1ccco1 | inactive | 11.4 | 12.1 | > 12.5 | 6.53 | inactive |
| COC(=O)CSc1nc2cc(C)ccc2cc1C#N | > 12.5 µM (inactive) | > 12.5 | > 12.5 | > 12.5 | 7.44 | inactive |
| Cc1nc(Cl)c2oc3ccccc3c2n1 | > 12.5 µM (inactive) | > 12.5 | > 12.5 | > 12.5 | > 12.5 | > 12.5 µM (inactive) |
| O=C(Nc1ccc2[nH]ccc2c1)c1cccs1 | inactive | 7.12 | 4.71 | 3.97 | 5.19 | inactive |
| O=C(NC(=O)c1ccccc1)Nc1ccccc1 | > 12.5 µM (inactive) | > 12.5 | > 12.5 | > 12.5 | > 12.5 | > 12.5 µM (inactive) |
| CCOc1ccc(NC(=O)Nc2cccs2)cc1 | inactive | 10.7 | 6.47 | > 12.5 | 6.86 | inactive |
| COc1ccc(-c2nnc(SCC(=O)c3[nH]c(C)c(C(C)=O)c3C)o2)cc1 | > 12.5 µM (inactive) | > 12.5 | > 12.5 | > 12.5 | > 12.5 | > 12.5 µM (inactive) |
| O=C1c2ccc3c4c(ccc(c24)C(=O)N1c1cccc(O)c1)C(=O)N(c1cccc(O)c1)C3=O | > 12.5 µM (inactive) | > 12.5 | > 12.5 | 2.35 | 12.4 | inactive |
| CC(C)(C)OC(=O)NCc1ccc(NC(=O)c2nc[nH]c2C(=O)N[C@@H](Cc2ccccc2)C(=O)OCc2ccccc2)cc1 | > 12.5 µM (inactive) | > 12.5 | > 12.5 | > 12.5 | > 12.5 | > 12.5 µM (inactive) |
